In one data set the target is T1, Rat NHE3 (Rattus norvegicus, UniProt P26433).
T1 construct: expressed in transfected cells
Description: NHE activity measurement: pHi recovery after acid load in transfected LAP1 cells. The data set is classed as cell-based. Particulars: pH recovery after acid load, 3 minutes. An excerpt:
Most molecular biology techniques follow protocols from the works “Current Protocols in Molecular Biology (eds. Ausubel, F. M., Brent, R., Kingston, R. E., Moore, D. D., Seidman, J. G., Smith, J. A. and Struhl, K.; John Wiley & Sons)” or: “Molecular Cloning: A Laboratory Manual (Sambrock, J., Fritsch, E. F. and Maniatis, T.; Cold Spring Harbor Laboratory Press (1989))”. In our studies, stable transfected cell lines were produced which in each case express one of the following NHE subtypes: NHE1 of man (Sardet et al. Cell 56, 271-280 (1989)), NHE2 of the rabbit (Tse et al. J. Biol. Chem. 268, 11917-11924 (1993)), NHE3 from humans (Brant et al. Am. J. Physiol. 269 (Cell Physiol. 38), C198-C206 (1995)) or NHE3 of the rat (Orlowski et al.; J. Biol. Chem. 267, 9331-9339 (1992)).
After adding suitable linker sequences, the cDNA clones of the respective NHE subtypes obtained by Prof. Pouyssegur were cloned into the expression plasmid pMAMneo (obtainable, for example, via CLONTECH, Heidelberg) such that the Nhel restriction endonuclease recognition sequence of the plasmid is approximately 20-100 base pairs before the start codon of the respective NHE subtype and the entire coding sequence is present in the construct. In the human NHE3 obtained from human kidney mRNA via RT-PCR, the RT-PCR primer were selected such that the resulting cDNA band had terminal restriction sites which matched pMAMneo.
Using the so-called “calcium phosphate method” (described in Chapter 9.1 of “Current Protocols in Molecular Biology”), the NHE-deficient cell line LAP1 (Franchi et al.; Proc. Natl. Acad. Sci. USA 83, 9388-9392 (1986)) was transfected with the plasmids which contain the respective coding sequences of the NHE subtypes. After selection of transfected cells by means of growth in G418-containing medium (only cells which as a result of transfection contain a neogene can survive under these conditions), a selection was made for functional NHE expression. To do this, the “Acid Load” technique described by Sardet was used (Sardet et al.; Cell 56, 271-280 (1989)). Cells which express a functioning NHE subtype can also compensate in the absence of CO2 and HCO3- for the acidification carried out during this test, but untransfected LAP1 cells cannot. After repetition of the “Acid Load” selection several times, the surviving cells were inoculated into microtiter plates such that statistically there should have been one cell per well. Under the microscope, a check was made after approximately 10 days as to how many colonies were growing per well. Cell populations of individual colonies were then investigated with respect to their viability after “Acid Load” using the XTT proliferation kit (Boehringer Mannheim). The best cell lines were used for the further tests, and to avoid a loss of the transfected sequence were cultured under continuous selection pressure in G418-containing medium.
To determine IC50-values for the inhibition of the individual NHE subtypes by specific substances, a test developed by S. Faber (Faber et al.; Cell. Physiol. Biochem. 6, 39-49 (1996)), which is based on the “Acid Load” technique, was slightly modified.
In this test, the recovery of the intracellular pH (pHi) after an acidification was determined, which commences with functioning NHE even under bicarbonate-free conditions. To do this, the pHi was determined using the pH-sensitive fluorescent dye BCECF (Calbiochem, the precursor BCECF-AM is employed). The cells were first loaded with BCECF. The BCECF fluorescence was determined in a “Ratio Fluorescence Spectrometer” (Photon Technology International, South Brunswick, N.J., USA) at excitation wavelengths of 505 and 440 nm and an emission wavelength of 535 nm and converted into the pHi by means of calibration curves. […]

A further data set has as its system Caco 2 cells. Description: Caco 2 model (transport across monolayers, absorbed fraction). Conditions: Caco 2 monolayers, apical to basolateral, assessed from Papp via calibration curve. The data set is classed as in vitro ADME. As to the method:
The Caco 2 cell line was obtained from the American Type Culture Collection (ATCC) and kept in Dulbecco's Modified Eagle Medium (high proportion of glucose), supplemented with non-essential amino acids, L-glutamine, penicillin/streptomycin, and 10% strength fetal calf serum, in an incubator under a 10% CO2 atmosphere at 95% relative atmospheric humidity and at 37° C. The cells were grown in cell culture flasks (175 cm^2). For the transport studies, the Caco 2 cells were inoculated onto polycarbonate cell culture inserts (COSTAR TRANSWELLS®, pore size: 3 μm, surface: 4.71 cm^2) at a cell density of 6.5×10^4 cells/cm^2 and incubated in six-well culture trays, changing the medium after four and eight days and then every other day. 21- to 25-day-old monolayers were used for the experiments.
In each test series, a 21-day-old monolayer was tested for its properties using ^3H-dextrane as permeability marker. The value of the transfer rate (cumulative) after 120 min had to be in the range of 2%.
The growth medium was removed from the apical and the basolateral side and the monolayers were then rinsed with the transport buffer (Hank's balanced salt solution pH 7.8; contains 2.8 g/l of glucose), and the cells were equilibrated at 37° C. under a 10% CO2 atmosphere for 15 min. The HBSS buffer is then removed.
The test compounds were dissolved in a mixture of HBSS buffer and DMSO and added to the apical buffer, giving a 1% strength (v/v) DMSO solution. The test concentration for the first experiment was 1 mM, that for the second experiment was 100 μM. The experiments were carried out at 37° C. and started by adding 1.5 ml of test solution on the donor side (apical). Transport buffer without compound was added to the recipient side (basolateral, 2.5 ml). […] Apical samples were taken at the start and at the end (120 min), so that the recovery rate of the compounds could be determined using these concentrations and the cumulative basolateral concentration. The compounds were analyzed by HPLC.
The apparent permeability coefficient (Papp) is calculated using the following equation: [formula]
in which dc/dt denotes the flow through the monolayer (μg of compound/(ml×s)), V denotes the liquid volume in the collection chamber (ml), A denotes the surface area of the monolayer (cm^2) and c0 denotes the initial concentration (μg of compound/ml) in the donor chamber. The flow through the monolayer was calculated from the cumulative basolateral concentration at the corresponding point of time using the initially linear data curve (linear up to 60 min). All determinations were carried out in three replications, so that the calculated Papp value is the mean of three measurements. […]
For orientation: Caco-2 cells form a polarised layer with tight junctions and transporters.

Each structure is given as a SMILES string. Structures can show the parent of a compound that is named as a salt.

T1 sequence (P26433 29-831): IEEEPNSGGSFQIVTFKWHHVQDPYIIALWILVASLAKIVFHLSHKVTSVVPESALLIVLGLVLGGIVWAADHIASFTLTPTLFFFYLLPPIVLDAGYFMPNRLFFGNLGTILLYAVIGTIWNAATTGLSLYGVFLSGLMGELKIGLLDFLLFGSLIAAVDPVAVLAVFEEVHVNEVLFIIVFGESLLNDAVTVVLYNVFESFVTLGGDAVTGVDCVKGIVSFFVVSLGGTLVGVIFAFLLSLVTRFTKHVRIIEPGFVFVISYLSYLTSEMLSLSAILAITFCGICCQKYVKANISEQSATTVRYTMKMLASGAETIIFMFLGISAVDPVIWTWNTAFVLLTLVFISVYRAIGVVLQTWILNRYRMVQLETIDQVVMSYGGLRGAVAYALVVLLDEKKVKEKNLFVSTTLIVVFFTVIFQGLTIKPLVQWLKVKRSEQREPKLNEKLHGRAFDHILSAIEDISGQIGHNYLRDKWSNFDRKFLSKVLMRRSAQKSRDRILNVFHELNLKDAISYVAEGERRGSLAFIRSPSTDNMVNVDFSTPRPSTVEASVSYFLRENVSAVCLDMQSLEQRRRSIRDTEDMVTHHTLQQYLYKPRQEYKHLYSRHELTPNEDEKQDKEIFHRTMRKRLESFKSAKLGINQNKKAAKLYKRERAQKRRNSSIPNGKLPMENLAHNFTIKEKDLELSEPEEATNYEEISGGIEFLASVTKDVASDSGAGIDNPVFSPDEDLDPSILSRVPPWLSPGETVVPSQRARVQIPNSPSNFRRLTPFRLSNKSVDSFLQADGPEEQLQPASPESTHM

A word on the melting point: it is the temperature, or range, at which the solid turns liquid. As for `Brc1cccc(CN[C@@H]2C[C@@H]3C[C@H]2[C@@H]2CCC[C@H]32)c1.Cl`, the melting point came to 248 °C.
Still for that read-out and setting: with `COCCOc1cccc(CN[C@@H]2C[C@@H]3C[C@H]2[C@@H]2CCC[C@H]32)c1.Cl` the figure was 134 °C.
The same measure, in the same setting: the value for `Cl.Ic1cccc(CN[C@@H]2C[C@@H]3C[C@H]2[C@@H]2CCC[C@H]32)c1` was 220 to 224 °C (dec.).
Still for that read-out and setting: the value for `CN(C)c1cccc(CN[C@@H]2C[C@@H]3C[C@H]2[C@@H]2CCC[C@H]32)c1.Cl` was 166 to 170 °C (dec.); that for `COc1cccc(CCN[C@@H]2C[C@@H]3C[C@H]2[C@@H]2CCC[C@H]32)c1.Cl` was 222 to 225 °C; that for `COc1cccc(CCCN[C@@H]2C[C@@H]3C[C@H]2[C@@H]2CCC[C@H]32)c1.Cl` was 186 to 188 °C.
The compound `COc1cccc(CN[C@@H]2C[C@@H]3C[C@H]2[C@@H]2CCCC[C@H]32)c1.Cl` returned a melting point of 234 to 236 °C.
Broadly, the IC50 is the concentration that inhibits the measured activity by half. The low end stands for inhibition by little substance, the high end for a need for much substance. `COc1cccc(CN[C@@H]2C[C@@H]3C[C@H]2[C@H]2CCC[C@@H]32)c1` (relative stereo) [Example 9, (exo/exo)-(3-methoxybenzyl)(octahydro-4,7-methanoinden-5-yl)amine hydrochloride] came in with an IC50 against Rat NHE3 of 5 µM.
Take `COc1cccc(CNC2CC3CC2C2CCCC32)c1` (single isomer, unassigned; (+)) [(+)−6, (+)-(exo/endo)-(3-methoxybenzyl)(octahydro-4,7-methanoinden-5-yl) amine hydrochloride]: the IC50 against Rat NHE3 (hydrochloride) came out at 0.5 µM.
The same measure, in the same setting: with `COc1cccc(CNC2CC3CC2C2CCCC32)c1` (single isomer, unassigned; (-)) [(−)−6, (−)-(exo/endo)-(3-methoxybenzyl)(octahydro-4,7-methanoinden-5-yl)amine hydrochloride] the figure was 1 µM.
Turning to `COc1cccc(CN[C@@H]2CC3CC2[C@@H]2CCC[C@H]32)c1` (stereo partly drawn) [Example 7, (endo/exo)-(3-methoxybenzyl)(octahydro-4,7-methanoinden-5-yl)amine hydrochloride], 31 µM corresponded to half-maximal inhibition against Rat NHE3 (IC50).
With `COc1cccc(CN[C@@H]2CC3CC2[C@H]2CCC[C@@H]32)c1` (stereo partly drawn) [Example 8, (endo/endo)-(3-methoxybenzyl)(octahydro-4,7-methanoinden-5-yl)amine hydrochloride], the IC50 against Rat NHE3 came to 70 µM.
Consider `Cl.Fc1cccc(CN[C@@H]2C[C@@H]3C[C@H]2[C@@H]2CCC[C@H]32)c1` [Example 10, (exo/endo)-(3-fluorobenzyl)(octahydro-4,7-methanoinden-5-yl)amine hydrochloride], for which the Absorbed fraction in the data set with Caco 2 cells is 100%. In addition, on Rat NHE3, half-maximal inhibition (IC50) was put at 0.9 µM.
`O=C(O)c1cccc(CN[C@@H]2C[C@@H]3C[C@H]2[C@@H]2CCC[C@H]32)c1` [Example 14, (exo/endo)-3-[(octahydro-4,7-methanoinden-5-ylamino)-methyl]benzoic acid] had a melting point of 258 to 261 °C.
The compound `C/C(=C\c1cccc(/C=C(\C)C(=O)N=C(N)N)c1)C(=O)N=C(N)N.Cl.Cl` [S 2120, reference compound] showed an Absorbed fraction with Caco 2 cells of under 1%.
For the compound `C/C(=C\c1ccc(C)cc1/C=C(\C)C(=O)N=C(N)N)C(=O)N=C(N)N.Cl.Cl` [S 3226, reference compound], the Absorbed fraction in the data set on Caco 2 cells is under 5%.

Values taken from patent publication US6825231B2, “Substituted norbornylamino derivatives, processes for their preparation, their use as medicaments or diagnostics, and a medicament comprising them” (Aventis Pharma Deutschland GmbH, priority 1999, dated 2004).
